Laboratory results as given in patent EP0545103A1, “Insecticidal, acaricidal and molluscicidal 1-(substituted) thioalkylpyrroles” (priority 1991, dated 1993).

Assays:
Type in all cases: in vivo
[1] = tested on: Heliothis virescens, egg, tobacco budworm; assay: Tobacco budworm egg test, dipped cotton leaf and eggs; set-up: key: 0: no effect; 10-25% kill; 26-35% kill; 36-45% kill; 46-55% kill; 56-65% kill; 66-75% kill; 76-85% kill; 86-99% kill; 9: 100% kill; conditions: 1000 ppm; mortality rating after 3 days
Description: (§1) Test solutions are prepared by dissolving the test compound in a 35% acetone in water mixture to give a concentration of 10,000 ppm. Subsequent dilutions are made with water as needed.
Heliothis virescens, egg, tobacco budworm
A young cotton leaf about 6-7cm in length is dipped in an agitated test suspension for about 3 seconds. Eggs are collected on a cheesecloth and the cloth is cut into 10-20mm squares, each containing approximately 50-100 eggs which are 6-30 hours old. The egg-containing cheesecloth square is similarly dipped in a test suspension and placed on a treated cotton leaf. The combination is dried in a hood and then placed in an 8 ounce Dixie® cup #2168-ST (240ml volume, 6cm tall, 9.5cm top diameter, 8.0cm bottom diameter) into which a 5cm length of damp dental wick has been placed. The cup is covered with a clear plastic lid and held for 3 days, after which mortality counts are made.
(§2) All of the above tests are rated according to the rating scale shown below.

[2] = tested on: Heliothis virescens, 3rd instar tobacco budworm; assay: Tobacco budworm 3rd instar test, dipped cotton cotyledons; set-up: key: 0: no effect; 10-25% kill; 26-35% kill; 36-45% kill; 46-55% kill; 56-65% kill; 66-75% kill; 76-85% kill; 86-99% kill; 9: 100% kill; conditions: mortality rating after 3 days
Description: as §1
Heliothis virescens, 3rd instar tobacco budworm
Cotton cotyledons are dipped in the test solution and allowed to dry in a hood. When dry, each is cut into quarters and ten sections are placed individually in 30 mL plastic medicine cups containing a 5-7mm long piece of damp dental wick. One 3rd instar caterpillar is added to each cup and the cup is sealed with MYLAR® film. Treatments are maintained for 3 days before a mortality count and observation of reduction in feeding damage are made.
as §2

[3] = tested on: Spodoptera eridania, 3rd instar larvae, southern armyworm; assay: Southern armyworm 7-day residual test; conditions: R designates Residual: 7-day residual foliage, concentration not given
Description: as §1
Spodoptera eridania, 3rd instar larvae, southern armyworm, 7-day residual
The limabean leaves treated in the above test are maintained under high intensity lamps in the greenhouse for 7 days. These lamps duplicate the effects of a bright sunny day in June in New Jersey and are kept on for 14 hour day length. After 7 days, the foliage is sampled and assayed as in the above-said test.
as §2

[4] = tested on: Spodoptera eridania, 3rd instar larvae, southern armyworm; assay: Southern armyworm systemic uptake (stem systemic) test; set-up: key: 0: no effect; 10-25% kill; 26-35% kill; 36-45% kill; 46-55% kill; 56-65% kill; 66-75% kill; 76-85% kill; 86-99% kill; 9: 100% kill; conditions: cut stem in emulsion 3 days
Description: Spodoptera eridania, systemic uptake, 3rd instar larvae, southern armyworm
Subsequent 10-fold dilutions are made with water as needed. Sieva limabean plants, with the primary leaves expanded to a length of 7-8 cm, are cut off at least 3 cm above the soil level to avoid contamination with soil bacteria which will cause decay of the stem during the test. The cut stem is placed in the test emulsion and wrapped with a bit of cotton to hold the stem off the bottom of the bottle and to limit evaporation. The treated stem is thus maintained for 3 days at 27° C to allow the test compound to be taken up into the plant. Following this, one leaf is removed from the plant and placed in a 100 x 10 mm petri dish with 10 southern armyworms as described above. Mortality counts and observations of feeding damage are made 3 and 5 days later.
as §2

[5] = tested on: Diabrotic undecimpunctata howardi, 3rd instar southern corn rootworm; assay: Southern corn rootworm soil test; set-up: key: 0: no effect; 10-25% kill; 26-35% kill; 36-45% kill; 46-55% kill; 56-65% kill; 66-75% kill; 76-85% kill; 86-99% kill; 9: 100% kill; conditions: mortality rating after 6 days
Description: Diabrotic undecimpunctata howardi, 3rd instar southern corn rootworm
One cc of fine talc is placed in a 30 mL wide-mouth screw-top glass jar. One mL of the appropriate acetone test solution is pipetted onto the talc so as to provide 1.25 and 0.25 mg of active ingredient per jar. The jars are set under a gentle air flow until the acetone is evaporated. The dried talc is loosened, 1 cc of millet seed is added to serve as food for the insects and 25 mL of moist soil is added to each jar. The jar is capped and the contents thoroughly mixed on a Vortex Mixer. Following this, ten 3rd instar rootworms are added to each jar and the jars are loosely capped to allow air exchange for the larvae. The treatments are held for 6 days when mortality counts are made. Missing larvae are presumed dead, since they decompose rapidly and can not be found. The concentrations used in this test correspond approximately to 50 and 10 kg/ha, respectively.
as §2

[6] = tested on: Tetranychus urticae (OP-resistant strain), 2-spotted spider mite; assay: 2-spotted spider mite test, dipped infested limabean plants; set-up: key: 0: no effect; 10-25% kill; 26-35% kill; 36-45% kill; 46-55% kill; 56-65% kill; 66-75% kill; 76-85% kill; 86-99% kill; 9: 100% kill; conditions: for OP-RESISTANT MITES Adult: mortality rating after 2 days; for OP-RESISTANT MITES Egg / OP-RESISTANT MITES Nymph: rating after 5 days
Description: as §1
Tetranychus urticae (OP-resistant strain), 2-spotted spider mite
Sieva limabean plants with primary leaves expanded to 7-8 cm are selected and cut back to one plant per pot. A small piece is cut from an infested leaf taken from the main colony and placed on each leaf of the test plants. This is done about 2 hours before treatment to allow the mites to move over to the test plant and to lay eggs. The size of the cut, infested leaf is varied to obtain about 100 mites per leaf. At the time of test treatment, the piece of leaf used to transfer the mites is removed and discarded. The newly mite-infested plants are dipped in the test solution for 3 seconds with agitation and set in the hood to dry. After 2 days one leaf is removed and mortality counts are made. After 5 days, another leaf is removed and observations are made of mortality of the eggs and/or newly emerged nymphs.
as §2

[7] = tested on: Aphis fabae, mixed instar, bean aphid; assay: Bean aphid spray test on nasturtium; set-up: key: 0: no effect; 10-25% kill; 26-35% kill; 36-45% kill; 46-55% kill; 56-65% kill; 66-75% kill; 76-85% kill; 86-99% kill; 9: 100% kill; conditions: 100 ppm; spray; mortality rating after 2 days
Description: as §1
Aphis fabae, mixed instar, bean aphid
Pots containing single nasturtium plants (Tropaeolum sp.) about 5 cm tall are infested with about 100-200 aphids one day prior to treatment. Each pot is sprayed with the test solution for 2 revolutions of a 4 rpm turntable in a hood, using a #154 DeVilbiss atomizer. The spray tip is held about 15 cm from the plant and the spray directed so as to give complete coverage of the plants and the aphids. The sprayed pots are set on their sides on white enamel trays and mortality estimates are made after 2 days.
as §2

[8] = tested on: Empoasca abrupta, adult, western potato leafhopper; assay: Western potato leafhopper systemic uptake test; set-up: key: 0: no effect; 10-25% kill; 26-35% kill; 36-45% kill; 46-55% kill; 56-65% kill; 66-75% kill; 76-85% kill; 86-99% kill; 9: 100% kill; conditions: 100 ppm; cut stem in emulsion 3 days; mortality rating after 2 days
Description: Empoasca abrupta, adult, western potato leafhopper Systemic Uptake
An emulsion containing 0.1 gm of the test material, 0.2 gm of Emulphor EL-620® emulsifier, 10 mL of acetone and 90 mL of water is prepared and diluted 10-fold with water to give a 100 ppm emulsion. Subsequent 10-fold dilutions are made with water as needed. Sieva limabean plants, with the primary leaves expanded to a length of 7-8 cm, are cut off at least 3 cm above the soil level to avoid contamination with soil bacteria which will cause decay of the stem during the test. The cut stem is placed in the test emulsion and wrapped with a bit of cotton to hold the stem off the bottom of the bottle and to limit evaporation. The treated stem is maintained for 3 days at 27°C to allow the test compound to be taken up into the plant. Following this, one leaf is removed from the plant and placed in a 100 x 10 mm petri dish containing a moist filter paper and about 10 adult leafhoppers as described above. Mortality counts are made after 2 days.
as §2

[9] = tested on: Spodoptera eridania, 3rd instar larvae, southern armyworm; assay: Southern armyworm 3rd instar test, dipped limabean leaf; conditions: for ARMYWORM Day 3: rating at 3 days; for ARMYWORM Day 5: rating at 5 days
Description: as §1
Spodoptera eridania, 3rd instar larvae, southern armyworm
A Sieva limabean leaf expanded to 7-8 cm in length is dipped in the test solution with agitation for 3 seconds and allowed to dry in a hood. The leaf is then placed in a 100 x 10 mm petri dish containing a damp filterpaper on the bottom and ten 3rd instar caterpillars. At 3 and 5 days, observations are made of mortality, reduced feeding, or any interference with normal molting.
as §2

[10] = tested on: Empoasca abrupta, adult, western potato leafhopper; assay: Western potato leafhopper contact test, dipped limabean leaf; conditions: mortality rating after 2 days
Description: as §1
Empoasca abrupta, adult, western potato leafhopper
A Sieva limabean leaf about 5 cm long is dipped in the test solution for 3 seconds with agitation and placed in a hood to dry. The treated leaf is placed in a 100 x 10 mm petri dish containing a moist filter paper and about 10 adult leafhoppers are added. After 2 days, mortality counts are made.
as §2

Compound | TOBACCO BUDWORM Egg [1] | ARMYWORM Stem Sys [4] | OP-RESISTANT MITES Adult ([6]; 10 ppm) | OP-RESISTANT MITES Egg ([6]; 10 ppm) | OP-RESISTANT MITES Egg ([6]; 100 ppm) | OP-RESISTANT MITES Egg ([6]; 300 ppm) | OP-RESISTANT MITES Nymph ([6]; 300 ppm) | APHIDS [7] | LEAFHOPPER Systemic [8] | ARMYWORM Day 3 ([9]; 10 ppm) | ARMYWORM Day 5 ([9]; 10 ppm) | ARMYWORM Day 3 ([9]; 100 ppm) | ARMYWORM Day 5 ([9]; 100 ppm) | ARMYWORM Day 3 ([9]; 1000 ppm) | ARMYWORM Day 5 ([9]; 1000 ppm) | OP-RESISTANT MITES Adult ([6]; 100 ppm) | OP-RESISTANT MITES Adult ([6]; 300 ppm) | LEAFHOPPER Contact ([10]; 10 ppm) | LEAFHOPPER Contact ([10]; 100 ppm) | also measured
N#Cc1c(Cl)c(C(F)(F)F)n(CSC2=NCCCN2)c1-c1ccc(Cl)cc1 [Example 5] | 0 | 8 (86-99% kill) | 0 | 0 | 9 (100% kill) | 0 | 0 | 0 | 8 (86-99% kill) | – | – | – | – | – | – | – | – | – | – | TOBACCO BUDWORM 3rd Instar ([2]; 10 ppm): 0; TOBACCO BUDWORM 3rd Instar ([2]; 100 ppm): 9 (100% kill); TOBACCO BUDWORM 3rd Instar ([2]; 1000 ppm): 9 (100% kill); ARMYWORM Day 3 R ([3]; rating at 3 days): 9 (100% kill); ARMYWORM Day 5 R ([3]; rating at 5 days): 9 (100% kill); SOUTHERN CORN ROOTWORM ([5]; 50 (ppm as headed)): 0; OP-RESISTANT MITES Nymph ([6]; 10 ppm): 0
CC(C)OC(=S)SCn1c(-c2ccc(Cl)cc2)c(C#N)c(Cl)c1C(F)(F)F [Example 22] | 0 | 0 | 9 (100% kill) | 9 (100% kill) | 9 (100% kill) | 0 | 9 (100% kill) | 7 (76-85% kill) | 0 | 9 (100% kill) | 9 (100% kill) | 9 (100% kill) | 9 (100% kill) | 9 (100% kill) | 9 (100% kill) | 9 (100% kill) | 9 (100% kill) | 9 (100% kill) | 9 (100% kill) | –
CCOC(=S)SCn1c(-c2ccc(Cl)cc2)c(C#N)c(Cl)c1C(F)(F)F [Example 23] | 0 | – | 9 (100% kill) | 9 (100% kill) | 9 (100% kill) | 0 | 9 (100% kill) | 5 (56-65% kill) | 0 | 9 (100% kill) | 9 (100% kill) | 9 (100% kill) | 9 (100% kill) | 9 (100% kill) | 9 (100% kill) | 9 (100% kill) | 9 (100% kill) | 9 (100% kill) | 9 (100% kill) | SOUTHERN CORN ROOTWORM ([5]; 1 (ppm as headed)): 0
